In ChEMBL document CHEMBL4806970, “Degraders of cyclin-dependent kinase 12 (cdk12) and uses thereof” (2020):
Several values for one entry are separate records, joined by “and”; a condition that tells them apart may be missing. Equal entries are not always repeated. Activity calls are given as the source filed them. No cut-off for these calls is given here.

Experiments:
[1] = target: T1, Protein cereblon/Cyclin-dependent kinase 12 (Homo sapiens) (UniProt Q9NYV4+Q96SW2); experiment: PROTAC activity at CRBN/CDK12 in human Jurkat cells assessed as induction of CDK12 degradation up to 500 nM incubated for 6 hrs by western blot analysis; type: cell-based; settings: dose nM <=500, time 6.0 hrs
[2] = AUClast in C57BL/6 mouse at 2 mg/kg, iv measured up to 8 hrs post-dosing; type: ADME, organism-based; parameters: route intravenous, dose 2 mg/kg, time <=8; settings: in vivo
[3] = Half life in C57BL/6 mouse at 2 mg/kg, iv measured up to 8 hrs post-dosing; type: ADME, organism-based; settings: in vivo
[4] = AUC (extrapolated) in C57BL/6 mouse at 2 mg/kg, iv measured up to 8 hrs post-dosing; type: ADME, organism-based; settings: in vivo
[5] = Cmax in C57BL/6 mouse at 2 mg/kg, iv measured up to 8 hrs post-dosing; type: ADME, organism-based; parameters: route intravenous, dose 2 mg/kg, time <=8; settings: in vivo
[6] = target: T1, Protein cereblon/Cyclin-dependent kinase 12 (Homo sapiens); experiment: PROTAC activity at CRBN/CDK12 in human Jurkat cells assessed as induction of CDK12 degradation at 100 nM incubated for 6 hrs by western blot analysis; type: cell-based
[7] = AUC(infinity) in C57BL/6 mouse at 2 mg/kg, iv measured up to 8 hrs post-dosing; type: ADME, organism-based; parameters: route intravenous, dose 2 mg/kg, time <=8; settings: in vivo

T1 sequence (Q96SW2 whole entry, looked up): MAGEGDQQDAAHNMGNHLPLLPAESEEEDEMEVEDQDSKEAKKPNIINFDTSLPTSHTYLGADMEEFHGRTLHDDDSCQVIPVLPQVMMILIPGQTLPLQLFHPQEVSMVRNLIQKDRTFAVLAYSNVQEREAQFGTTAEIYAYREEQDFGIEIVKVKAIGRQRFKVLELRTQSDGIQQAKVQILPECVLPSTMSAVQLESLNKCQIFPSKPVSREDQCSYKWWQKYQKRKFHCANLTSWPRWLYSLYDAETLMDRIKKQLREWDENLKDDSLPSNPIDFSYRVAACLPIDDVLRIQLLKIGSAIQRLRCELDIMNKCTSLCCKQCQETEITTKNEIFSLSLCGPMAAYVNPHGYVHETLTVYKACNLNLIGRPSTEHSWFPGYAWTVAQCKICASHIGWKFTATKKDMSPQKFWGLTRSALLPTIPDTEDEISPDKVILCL
T1 sequence (Q9NYV4 whole entry, looked up): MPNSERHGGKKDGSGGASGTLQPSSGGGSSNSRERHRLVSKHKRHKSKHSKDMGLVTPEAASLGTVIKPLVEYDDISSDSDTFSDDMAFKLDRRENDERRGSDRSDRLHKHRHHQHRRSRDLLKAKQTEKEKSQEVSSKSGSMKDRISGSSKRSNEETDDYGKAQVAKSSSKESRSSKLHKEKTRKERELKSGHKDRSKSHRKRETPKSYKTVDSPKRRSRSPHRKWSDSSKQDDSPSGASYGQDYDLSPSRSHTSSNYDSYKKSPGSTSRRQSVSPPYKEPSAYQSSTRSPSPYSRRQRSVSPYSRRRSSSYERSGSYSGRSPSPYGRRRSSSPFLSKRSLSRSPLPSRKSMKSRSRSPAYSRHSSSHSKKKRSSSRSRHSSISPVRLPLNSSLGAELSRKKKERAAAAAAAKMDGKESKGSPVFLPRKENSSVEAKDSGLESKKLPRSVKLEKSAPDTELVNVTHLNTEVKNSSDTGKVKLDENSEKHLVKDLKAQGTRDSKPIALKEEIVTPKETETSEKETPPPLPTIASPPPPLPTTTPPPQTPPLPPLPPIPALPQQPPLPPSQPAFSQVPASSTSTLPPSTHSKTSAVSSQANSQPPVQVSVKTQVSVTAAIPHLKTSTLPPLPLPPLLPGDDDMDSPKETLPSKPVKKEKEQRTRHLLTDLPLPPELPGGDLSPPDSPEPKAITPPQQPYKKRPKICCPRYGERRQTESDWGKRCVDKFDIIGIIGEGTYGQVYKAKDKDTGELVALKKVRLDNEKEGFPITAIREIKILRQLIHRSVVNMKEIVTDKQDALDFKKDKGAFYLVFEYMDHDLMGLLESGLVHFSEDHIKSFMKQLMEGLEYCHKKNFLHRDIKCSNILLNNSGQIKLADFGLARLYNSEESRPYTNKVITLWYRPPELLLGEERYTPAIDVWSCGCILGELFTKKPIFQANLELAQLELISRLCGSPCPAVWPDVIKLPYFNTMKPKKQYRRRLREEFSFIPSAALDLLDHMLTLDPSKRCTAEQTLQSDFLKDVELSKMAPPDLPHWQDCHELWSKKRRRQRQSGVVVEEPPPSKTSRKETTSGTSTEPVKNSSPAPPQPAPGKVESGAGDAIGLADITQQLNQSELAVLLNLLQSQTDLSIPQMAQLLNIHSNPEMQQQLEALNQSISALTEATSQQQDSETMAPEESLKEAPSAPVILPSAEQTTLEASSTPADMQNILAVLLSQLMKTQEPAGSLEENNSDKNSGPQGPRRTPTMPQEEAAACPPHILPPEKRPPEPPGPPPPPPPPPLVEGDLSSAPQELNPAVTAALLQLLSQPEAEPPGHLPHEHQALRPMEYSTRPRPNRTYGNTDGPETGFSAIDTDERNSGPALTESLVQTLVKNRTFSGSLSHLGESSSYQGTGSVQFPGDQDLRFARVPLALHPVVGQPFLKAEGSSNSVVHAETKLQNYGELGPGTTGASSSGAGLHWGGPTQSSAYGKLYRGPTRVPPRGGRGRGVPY

SMILES | Activity [1] | Activity [6] [%] | further results
Cc1ncsc1-c1ccc([C@H](C)NC(=O)[C@H]2C[C@H](O)CN2C(=O)[C@@H](NC(=O)CCCCCCCCCCN2CCC[C@@H](Nc3ncc(Cl)c(Nc4ccccc4S(=O)(=O)C(C)C)n3)C2)C(C)(C)C)cc1 | inactive |  | 
O=C(COc1cccc2c1C(=O)N(C1CCC(=O)NC1=O)C2=O)NCCCCCN1CCC[C@@H](Nc2ncc(Cl)c(-c3c[nH]c4ccccc34)n2)C1 (some centres not stated) | inactive |  | 
O=C(COc1cccc2c1C(=O)N(C1CCC(=O)NC1=O)C2=O)NCCOCCOCCN1CCC[C@@H](Nc2ncc(Cl)c(-c3c[nH]c4ccccc34)n2)C1 (some centres not stated) | inactive |  | 
Cc1ncsc1-c1ccc([C@H](C)NC(=O)[C@@H]2C[C@@H](O)CN2C(=O)[C@@H](NC(=O)CCCCCCCCCCN2CCC[C@@H](Nc3ncc(Cl)c(Nc4ccccc4S(=O)(=O)C(C)C)n3)C2)C(C)(C)C)cc1 |  | 90 | AUC(0-t) at 8 h [2]: 5720 ng·h/mL and 5.61 µM·h; half-life [3]: 133 min; %AUCextra [4]: 6.27%; Cmax [5]: 4570 ng/mL and 4.49 µM; AUC(0-inf) [7]: 6140 ng·h/mL
O=C(COc1cccc2c1C(=O)N(C1CCC(=O)NC1=O)C2=O)NCCCCCCN1CCC(C(=O)N2CCC[C@@H](Nc3ncc(Cl)c(-c4c[nH]c5ccccc45)n3)C2)CC1 (some centres not stated) |  | 80 | 
O=C(COc1cccc2c1C(=O)N(C1CCC(=O)NC1=O)C2=O)NCCCCCN1CCN(c2ccc(C(=O)N3CCC[C@@H](Nc4ncc(Cl)c(-c5c[nH]c6ccccc56)n4)C3)cc2)CC1 (some centres not stated) |  | 80 | 
O=C(COc1cccc2c1C(=O)N(C1CCC(=O)NC1=O)C2=O)NCCCCN1CCC[C@@H](Nc2ncc(Cl)c(-c3c[nH]c4ccccc34)n2)C1 (some centres not stated) | inactive |  | 
O=C(COc1cccc2c1C(=O)N(C1CCC(=O)NC1=O)C2=O)NCCCCCCN1CCC[C@@H](Nc2ncc(Cl)c(-c3c[nH]c4ccccc34)n2)C1 (some centres not stated) |  | 80 | 
O=C(COc1cccc2c1C(=O)N(C1CCC(=O)NC1=O)C2=O)NCCOCCOCCOCCN1CCC[C@@H](Nc2ncc(Cl)c(-c3c[nH]c4ccccc34)n2)C1 (some centres not stated) |  | 80 | 
O=C(COc1cccc2c1C(=O)N(C1CCC(=O)NC1=O)C2=O)NCCOCCOCCC(=O)N1CCC[C@@H](Nc2ncc(Cl)c(-c3c[nH]c4ccccc34)n2)C1 (some centres not stated) | inactive |  | 
O=C(COc1cccc2c1C(=O)N(C1CCC(=O)NC1=O)C2=O)NCCCCCCCN1CCC(C(=O)N2CCC[C@@H](Nc3ncc(Cl)c(-c4c[nH]c5ccccc45)n3)C2)CC1 (some centres not stated) |  | 80 | 
O=C(COc1cccc2c1C(=O)N(C1CCC(=O)NC1=O)C2=O)NCCCCCCCN1CCN(c2cccc(C(=O)N3CCC[C@@H](Nc4ncc(Cl)c(-c5c[nH]c6ccccc56)n4)C3)c2)CC1 (some centres not stated) | inactive |  | 
CC(C)S(=O)(=O)c1ccccc1Nc1nc(N[C@@H]2CCCN(CCCCCCCNC(=O)COc3cccc4c3C(=O)N(C3CCC(=O)NC3=O)C4=O)C2)ncc1Cl (some centres not stated) |  | 90 | 
O=C(COc1cccc2c1C(=O)N(C1CCC(=O)NC1=O)C2=O)NCCCCCCCN1CCC[C@@H](Nc2ncc(Cl)c(-c3c[nH]c4ccccc34)n2)C1 (some centres not stated) |  | 90 | 
Cc1ncsc1-c1ccc([C@H](C)NC(=O)[C@@H]2C[C@@H](O)CN2C(=O)[C@@H](NC(=O)CCOCCOCCOCCN2CCC[C@@H](Nc3ncc(Cl)c(Nc4ccccc4S(=O)(=O)C(C)C)n3)C2)C(C)(C)C)cc1 |  | 90 | 
O=C(COc1cccc2c1C(=O)N(C1CCC(=O)NC1=O)C2=O)NCCCN1CCN(c2ccc(C(=O)N3CCC[C@@H](Nc4ncc(Cl)c(-c5c[nH]c6ccccc56)n4)C3)cc2)CC1 (some centres not stated) |  | 60 | 
O=C(COc1cccc2c1C(=O)N(C1CCC(=O)NC1=O)C2=O)NCCCCCC(=O)N1CCC[C@@H](Nc2ncc(Cl)c(-c3c[nH]c4ccccc34)n2)C1 (some centres not stated) | inactive |  | 
